Results on 9 compounds are retold here after patent publication US20100048462A1, “TRUNCATED PTH PEPTIDES WITH A CYCLIC CONFORMATION” (Zealand Pharma A/S, priority 2006, published 2010).

Molecules are shown by their SMILES. Bridge positions count the residues as written; N and C are the ends. Square brackets hold non-standard residues; d marks the D form. Peptide text beside a SMILES is read from it. hArg = N=C(N)NCCCC[C@H](N)C(=O)O; Ac6c = NC1(C(=O)O)CCCCC1; Ac5c = NC1(C(=O)O)CCCC1; Nva = CCC[C@H](N)C(=O)O; Abu = CC[C@H](N)C(=O)O; Aib = CC(C)(N)C(=O)O

The EC50 is the midpoint of the concentration-response curve.

This assay addresses T1, Saos-2 PTH1R (Homo sapiens, UniProt Q03431).
T1 construct: endogenous in cells; host or cells: Saos-2
T1 sequence (Q03431 27-593): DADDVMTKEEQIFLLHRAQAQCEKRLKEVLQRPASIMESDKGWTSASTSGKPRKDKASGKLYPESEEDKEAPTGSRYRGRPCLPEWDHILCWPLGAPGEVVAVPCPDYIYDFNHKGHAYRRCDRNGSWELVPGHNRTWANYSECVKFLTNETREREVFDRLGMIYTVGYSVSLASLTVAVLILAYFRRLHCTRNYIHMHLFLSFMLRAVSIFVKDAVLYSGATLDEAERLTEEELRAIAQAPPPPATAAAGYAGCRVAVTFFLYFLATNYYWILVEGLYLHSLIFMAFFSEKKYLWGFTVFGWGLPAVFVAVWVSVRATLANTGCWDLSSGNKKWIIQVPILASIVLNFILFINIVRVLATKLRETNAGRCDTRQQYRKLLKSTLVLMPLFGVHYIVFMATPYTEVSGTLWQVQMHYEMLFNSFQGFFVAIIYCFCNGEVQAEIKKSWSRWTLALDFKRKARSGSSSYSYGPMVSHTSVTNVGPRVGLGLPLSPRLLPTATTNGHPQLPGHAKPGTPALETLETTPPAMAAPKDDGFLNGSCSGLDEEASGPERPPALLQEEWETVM
Briefly: cAMP-efficacy assay in Saos-2 cells. As to conditions: for EC50: cAMP, 100 μM IBMX, 37° C. 15 min, suffix of label = salt tested; for Emax ± SEM: relative effect to the control (SEQ ID NO: 32). It is filed as cell-based. The procedure: Peptides were dissolved in phosphate buffered saline and further diluted in Tyrode's buffer (TB, Sigma-Aldrich) containing 0.1% BSA and 100 μM isobutyl-methyl-xanthine (IBMX, Sigma-Aldrich). Saos-2 cells were seeded at 50,000 cells/well in 96-microtiter plates and grown for two days before the efficacy assays. On the day of analysis, the growth medium was carefully removed by suction. Cells were washed once with 200 μl TB/0.1% BSA. The buffer was replaced with 100 μl reaction mixture (±test peptide), and incubated at 37° C. for 15 min. The reaction was stopped by addition of 25 μl of ice-cold 0.5 M HCl. Cells were in the following incubated on ice for 60 min. 75 μl acetate-buffer, pH6.2, was added to each well of a 96-well cAMP FlashPlate (Perkin-Elmer). […] FlashPlates were incubated overnight at 4° C., emptied by suction and counted in a TopCounter (Packard).
Determinations were performed in single determinations or triplicates at all doses. […] Standards were included as single determinations, duplicates or triplicates in each experiment, preferentially on each plate.
Concentration-dependent cAMP responses were imported into GraphPad Prism vers. 4 (GraphPad Software), transformed and plotted. […] Thus, a four-parameter logistic equation was used for determination of the EC50 values. Curves were fitted with a function for sigmoidal dose response curve (variable slope) non-linear fit Y=Bottom+(Top-Bottom)/(1+10̂((LogEC50−X)*HillSlope)) where X is the logarithm of concentration and Y is the response. Y starts at Bottom and goes to Top with a sigmoid shape. pEC50, Hill-coefficient and the maximally inducible concentration of cAMP (Emax) were evaluated.
Overall statistical differences were analyzed with Statistica (Statsoft) using one-way ANOVA. Post-hoc comparisons were made by the use of Fisher's Least Significance Test. Results were considered significant, when p was lower than 0.05.

Turning to `CC[C@H](C)[C@H](NC(=O)[C@H](CCC(=O)O)NC(=O)C(C)(C)NC(=O)[C@@H](NC(=O)C1(N)CCCC1)C(C)C)C(=O)N[C@@H](CCC(N)=O)C(=O)N[C@@H](CC(C)C)C(=O)N[C@@H](CCSC)C(=O)N[C@@H](Cc1c[nH]cn1)C(=O)N[C@@H](CCC(N)=O)C(=O)N[C@@H](CCCCNC(=N)N)C(=O)N[C@@H](C)C(=O)N[C@H]1CCCCNC(=O)C[C@@H](C(N)=O)NC(=O)[C@H](CC(N)=O)NC(=O)[C@H](CC(C)C)NC(=O)[C@H](Cc2c[nH]c3ccccc23)NC1=O` [2A, H-Ac5c-Val-Aib-Glu-Ile-Gln-Leu-Met-His-Gln-Har-Ala-Lys( )Trp-Leu-Asn-Asp( )-NH2] (H-[Ac5c]V[Aib]EIQLMHQ[hArg]AKWLND-NH2; lactam 13-17), the EC50 is 6.31 nM and the “Emax ± SEM” value is 0.99 ± 0.03.

As to `CC[C@H](C)[C@H](NC(=O)[C@H](CCC(=O)O)NC(=O)C(C)(C)NC(=O)[C@@H](NC(=O)C1(N)CCCC1)C(C)C)C(=O)N[C@@H](CCC(N)=O)C(=O)N[C@@H](CC(C)C)C(=O)N[C@@H](CCSC)C(=O)N[C@@H](Cc1c[nH]cn1)C(=O)N[C@@H](CCC(N)=O)C(=O)N[C@@H](CCCCNC(=N)N)C(=O)N[C@@H](C)C(=O)N[C@H]1CCCCNC(=O)C[C@@H](C(N)=O)NC(=O)[C@H](CC(N)=O)NC(=O)[C@H](CC(C)C)NC(=O)[C@H](Cc2c[nH]c3ccccc23)NC1=O` [2C, H-Ac5c-Val-Aib-Glu-Ile-Gln-Leu-Met-His-Gln-Har-Ala-Lys( )Trp-Leu-Asn-Asp( )-NH2] (H-[Ac5c]V[Aib]EIQLMHQ[hArg]AKWLND-NH2; lactam 13-17), the EC50 was 6.61 nM and the “Emax ± SEM” value is on record as 0.94 ± 0.03.

`CC[C@H](C)[C@H](NC(=O)[C@H](CCC(=O)O)NC(=O)C(C)(C)NC(=O)[C@@H](NC(=O)C1(N)CCCC1)C(C)C)C(=O)N[C@@H](CCC(N)=O)C(=O)N[C@@H](CC(C)C)C(=O)N[C@@H](CCSC)C(=O)N[C@@H](Cc1c[nH]cn1)C(=O)N[C@@H](CCC(N)=O)C(=O)N[C@@H](CCCCNC(=N)N)C(=O)N[C@@H](C)C(=O)N[C@H]1CCCCNC(=O)C[C@@H](C(N)=O)NC(=O)[C@H](CC(N)=O)NC(=O)[C@H](CC(C)C)NC(=O)[C@H](Cc2c[nH]c3ccccc23)NC1=O` [2T, H-Ac5c-Val-Aib-Glu-Ile-Gln-Leu-Met-His-Gln-Har-Ala-Lys( )Trp-Leu-Asn-Asp( )-NH2] (H-[Ac5c]V[Aib]EIQLMHQ[hArg]AKWLND-NH2; lactam 13-17): the concentration giving a half-maximal response (EC50) was 6.61 nM and the “Emax ± SEM” value turned out to be 0.70 ± 0.09.

Regarding `CC[C@H](C)[C@H](NC(=O)[C@H](CCC(=O)O)NC(=O)C(C)(C)NC(=O)[C@@H](NC(=O)C1(N)CCCC1)C(C)C)C(=O)N[C@@H](CCC(N)=O)C(=O)N[C@@H](CC(C)C)C(=O)N[C@@H](CC(C)C)C(=O)N[C@@H](Cc1c[nH]cn1)C(=O)N[C@@H](CCC(N)=O)C(=O)N[C@@H](CCCCNC(=N)N)C(=O)N[C@@H](C)C(=O)N[C@H]1CCCCNC(=O)C[C@@H](C(=O)O)NC(=O)[C@H](CC(N)=O)NC(=O)[C@H](CC(C)C)NC(=O)[C@H](Cc2c[nH]c3ccccc23)NC1=O` [SEQ ID NO: 5, H-Ac5c-Val-Aib-Glu-Ile-Gln-Leu-Leu-His-Gln-Har-Ala-Lys( )-Trp-Leu-Asn-Asp( )-OH] (H-[Ac5c]V[Aib]EIQLLHQ[hArg]AKWLND-OH; lactam 13-17), the EC50 was 72.4 nM and the “Emax ± SEM” value was 1.16 ± 0.12.

On to `CC[C@H](C)[C@H](NC(=O)[C@H](CCC(=O)O)NC(=O)C(C)(C)NC(=O)[C@@H](NC(=O)C1(N)CCCC1)C(C)C)C(=O)N[C@@H](CCC(N)=O)C(=O)N[C@@H](CC(C)C)C(=O)N[C@@H](CCSC)C(=O)N[C@@H](Cc1c[nH]cn1)C(=O)N[C@@H](CCC(N)=O)C(=O)N[C@@H](CCCCNC(=N)N)C(=O)N[C@@H](C)C(=O)N[C@H]1CC(=O)NCCCC[C@@H](C(N)=O)NC(=O)[C@H](CC(N)=O)NC(=O)[C@H](CC(C)C)NC(=O)[C@H](Cc2c[nH]c3ccccc23)NC1=O` [SEQ ID NO: 6, H-Ac5c-Val-Aib-Glu-Ile-Gln-Leu-Met-His-Gln-Har-Ala-Asp( )-Trp-Leu-Asn-Lys( )-NH2] (H-[Ac5c]V[Aib]EIQLMHQ[hArg]ADWLNK-NH2; lactam 13-17), for which the EC50 is 126 nM and the “Emax ± SEM” value is listed as 1.5.

`CC[C@H](C)[C@H](NC(=O)[C@H](CCC(=O)O)NC(=O)C(C)(C)NC(=O)[C@@H](NC(=O)C1(N)CCCCC1)C(C)C)C(=O)N[C@@H](CCC(N)=O)C(=O)N[C@@H](CC(C)C)C(=O)N[C@@H](CC(C)C)C(=O)N[C@@H](Cc1c[nH]cn1)C(=O)N[C@@H](CCC(N)=O)C(=O)N[C@@H](CCCCNC(=N)N)C(=O)N[C@@H](C)C(=O)N[C@H]1CCCCNC(=O)C[C@@H](C(N)=O)NC(=O)[C@H](CC(N)=O)NC(=O)[C@H](CC(C)C)NC(=O)[C@H](Cc2c[nH]c3ccccc23)NC1=O` [SEQ ID NO: 10, H-Ac6c-Val-Aib-Glu-Ile-Gln-Leu-Leu-His-Gln-Har-Ala-Lys( )-Trp-Leu-Asn-Asp( )-NH2] (H-[Ac6c]V[Aib]EIQLLHQ[hArg]AKWLND-NH2; lactam 13-17): the EC50 was 12.6 nM and the “Emax ± SEM” value turned out to be 1.08 ± 0.06.

As to `CC[C@H](N)C(=O)N[C@H](C(=O)NC(C)(C)C(=O)N[C@@H](CCC(=O)O)C(=O)N[C@H](C(=O)N[C@@H](CCC(N)=O)C(=O)N[C@@H](CC(C)C)C(=O)N[C@@H](CC(C)C)C(=O)N[C@@H](Cc1c[nH]cn1)C(=O)N[C@@H](CCC(N)=O)C(=O)N[C@@H](CCCCNC(=N)N)C(=O)N[C@@H](C)C(=O)N[C@H]1CCCCNC(=O)C[C@@H](C(N)=O)NC(=O)[C@H](CC(N)=O)NC(=O)[C@H](CC(C)C)NC(=O)[C@H](Cc2c[nH]c3ccccc23)NC1=O)[C@@H](C)CC)C(C)C` [SEQ ID NO: 11, H-Abu-Val-Aib-Glu-Ile-Gln-Leu-Leu-His-Gln-Har-Ala-Lys( )-Trp-Leu-Asn-Asp( )-NH2] (H-[Abu]V[Aib]EIQLLHQ[hArg]AKWLND-NH2; lactam 13-17), the EC50 was 67.6 nM and the “Emax ± SEM” value is 1.04 ± 0.05.

Take `CCC[C@H](N)C(=O)N[C@H](C(=O)NC(C)(C)C(=O)N[C@@H](CCC(=O)O)C(=O)N[C@H](C(=O)N[C@@H](CCC(N)=O)C(=O)N[C@@H](CC(C)C)C(=O)N[C@@H](CC(C)C)C(=O)N[C@@H](Cc1c[nH]cn1)C(=O)N[C@@H](CCC(N)=O)C(=O)N[C@@H](CCCCNC(=N)N)C(=O)N[C@@H](C)C(=O)N[C@H]1CCCCNC(=O)C[C@@H](C(N)=O)NC(=O)[C@H](CC(N)=O)NC(=O)[C@H](CC(C)C)NC(=O)[C@H](Cc2c[nH]c3ccccc23)NC1=O)[C@@H](C)CC)C(C)C` [SEQ ID NO: 12, H-Nva-Val-Aib-Glu-Ile-Gln-Leu-Leu-His-Gln-Har-Ala-Lys( )-Trp-Leu-Asn-Asp( )-NH2] (H-[Nva]V[Aib]EIQLLHQ[hArg]AKWLND-NH2; lactam 13-17): the EC50 is 102 nM and the “Emax ± SEM” value was found to be 1.04 ± 0.03.

Turning to `CC[C@H](C)[C@H](NC(=O)[C@H](CCC(=O)O)NC(=O)C1(NC(=O)[C@@H](NC(=O)C(C)(C)N)C(C)C)CCCC1)C(=O)N[C@@H](CCC(N)=O)C(=O)N[C@@H](CC(C)C)C(=O)N[C@@H](CC(C)C)C(=O)N[C@@H](Cc1c[nH]cn1)C(=O)N[C@@H](CCC(N)=O)C(=O)N[C@@H](CCCCNC(=N)N)C(=O)N[C@@H](C)C(=O)N[C@H]1CCCCNC(=O)C[C@@H](C(N)=O)NC(=O)[C@H](CC(N)=O)NC(=O)[C@H](CC(C)C)NC(=O)[C@H](Cc2c[nH]c3ccccc23)NC1=O` [SEQ ID NO: 13, H-Aib-Val-Ac5c-Glu-Ile-Gln-Leu-Leu-His-Gln-Har-Ala-Lys( )-Trp-Leu-Asn-Asp( )-NH2] (H-[Aib]V[Ac5c]EIQLLHQ[hArg]AKWLND-NH2; lactam 13-17), the EC50 was 53.7 nM and the “Emax ± SEM” value came out at 0.96 ± 0.03.
